The values below come from article PMC6825286 (Proceedings of the National Academy of Sciences of the …, 2019).

Structures are written as SMILES.

The experiment concerns the target T1, SghR (Agrobacterium tumefaciens, UniProt A0A2I4PGE9).
T1 sequence (A0A2I4PGE9 1-350): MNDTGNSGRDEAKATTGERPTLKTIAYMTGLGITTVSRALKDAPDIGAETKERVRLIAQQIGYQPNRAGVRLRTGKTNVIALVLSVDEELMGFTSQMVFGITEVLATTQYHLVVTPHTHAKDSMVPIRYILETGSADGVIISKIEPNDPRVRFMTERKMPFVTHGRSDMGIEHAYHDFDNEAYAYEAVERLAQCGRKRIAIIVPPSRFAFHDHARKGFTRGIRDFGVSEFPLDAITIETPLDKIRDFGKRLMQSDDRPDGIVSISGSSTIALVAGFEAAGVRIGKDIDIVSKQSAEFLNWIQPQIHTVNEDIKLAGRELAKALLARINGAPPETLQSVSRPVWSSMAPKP
In words: EMSA, dissociation of SghR from biotin-labelled sghA promoter. Format: binding. To be noted: sucrose 50 and 500 µM; inducer that releases the repressor from DNA. In general terms: Mobility shift assays separate free from complexed probe on a gel.

Regarding `OC[C@H]1O[C@@](CO)(O[C@H]2O[C@H](CO)[C@@H](O)[C@H](O)[C@H]2O)[C@@H](O)[C@@H]1O` [sucrose], the “EMSA, dissociation of SghR from biotin-labelled sghA promoter” value is “gel shift analysis demonstrated that sucrose dissociated repressor SghR from the sghA promoter”.
